Source: patent publication US9745279B2, “Sirtuin activator” (TOKIWA PHYTOCHEMICAL CO., LTD., priority 2011, dated 2017)

Key:
sirtuin = conditions: reported in Non-Patent Documents 4 and 5; cited from earlier work
SIRT1 enzyme [1] = target: T1, SIRT1 enzyme (Homo sapiens, UniProt Q96EB6); experiment: SIRT1 Activity Assay/Drug Discovery kit, Fluorescent: sirtuin activity acceleration by black ginger extracts and fractions (Example 3); format: biochemical; conditions: subject sample solution 500 μg/mL, 10 μL/well; FIGS. 1 and 2
T1 construct: purchased BIOMOL International (via COSMO BIO CO., LTD.) AK-555 (kit); SE-239 (enzyme)
T1 sequence (Q96EB6 1-747): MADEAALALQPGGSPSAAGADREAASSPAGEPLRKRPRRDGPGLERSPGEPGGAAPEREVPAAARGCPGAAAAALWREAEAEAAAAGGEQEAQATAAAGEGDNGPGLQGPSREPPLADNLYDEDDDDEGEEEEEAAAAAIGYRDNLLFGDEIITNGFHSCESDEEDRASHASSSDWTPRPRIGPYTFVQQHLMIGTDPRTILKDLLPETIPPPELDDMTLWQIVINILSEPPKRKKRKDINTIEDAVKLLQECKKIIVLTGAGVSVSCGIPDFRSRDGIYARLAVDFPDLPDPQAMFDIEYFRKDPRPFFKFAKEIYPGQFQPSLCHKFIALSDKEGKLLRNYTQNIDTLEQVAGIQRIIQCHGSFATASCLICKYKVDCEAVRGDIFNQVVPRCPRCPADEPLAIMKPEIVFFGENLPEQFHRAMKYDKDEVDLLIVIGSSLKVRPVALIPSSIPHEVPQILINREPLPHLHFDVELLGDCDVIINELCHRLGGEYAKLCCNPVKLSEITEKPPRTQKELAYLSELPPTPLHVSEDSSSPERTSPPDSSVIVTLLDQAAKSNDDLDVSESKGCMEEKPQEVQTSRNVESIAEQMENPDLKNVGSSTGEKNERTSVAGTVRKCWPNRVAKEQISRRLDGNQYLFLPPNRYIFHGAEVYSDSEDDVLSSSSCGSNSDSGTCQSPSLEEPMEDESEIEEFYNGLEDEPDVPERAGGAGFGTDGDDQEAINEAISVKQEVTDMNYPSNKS
Method: The sirtuin activity was measured according to the attached protocol using SIRT1 Activity Assay/Drug Discovery kit, Fluorescent (AK-555, BIOMOL International, Plymouth Meeting, Pa., USA [COSMO BIO CO., LTD., Tokyo]).
All measurement reagents (preserved at −80° C.) were stationed on ice until use to melt the SIRT1 enzyme (SE-239) and 5× Developer II (KI-176) moderately. SIRT1 enzyme was diluted to 0.2 U/μL with an assay buffer (KI-286). Resveratrol and extracts and fragments of the black ginger obtained above were used as subject samples. Solutions of 500 μg/mL were prepared using purified water for hot water extracts and the water phase fraction, and using DMSO for other samples. A solution of 10 μL/well was used for each obtained subject sample. To the control was added either DMSO or purified water instead of a subject sample. The substrate Fluor de Lys-SIRT1 (KI-177; 5 mM) plus a coenzyme NAD^+ (KI-282; 50 mM) were diluted with an assay buffer (KI-286) to obtain a concentration that is 3.33 folds that of the final usage concentration, and used in an amount of 15 μL/well. […] Then, a reaction stop solution Developer II/2 mM nicotinamide was added at 50 μL/well, and the fluorescent probe generated from Developer II was measured (excited wave length 380 nm, fluorescent wave length 460 nm) by a fluorescent plate reader (Tecan Co., Infinite 200) within 60 minutes after the reaction stopped.

SIRT1 enzyme [2] = target: T1, SIRT1 enzyme; experiment: SIRT1 fluorescent activity assay: sirtuin activity acceleration by polyalkoxyflavonoid compounds (Example 6); format: biochemical; conditions: FIG. 8
Method: The sirtuin activity was measured according to a protocol similar to that of Example 3.
All measurement reagents (preserved at −80° C.) were stationed on ice until use to melt the SIRT1 enzyme (SE-239) and 5× Developer II (KI-176) moderately. SIRT1 enzyme was diluted to 0.2 U/μL with an assay buffer (KI-286). Resveratrol, Compounds 1 to 5 and nobiletin (Funakoshi Co.) were used as subject samples. […] To the control was added DMSO instead of a subject sample. The substrate Fluor de Lys-SIRT1 (KI-177; 5 mM) plus a coenzyme NAD^+ (KI-282; 50 mM) was diluted with an assay buffer (KI-286) to obtain a concentration that is 3.33 folds that of the final use concentration, and used in an amount of 15 μL/well. A subject sample solution (10 μL/well), SIRT1 enzyme solution (0.2 U/μL, 5 μL/well) and an assay buffer (10 μL/well) were added to the measurement microplate and pre-incubated at 37° C. for 5 minutes. The substrate solution that was heated preliminary at 37° C. was added at 25 μL/well, then, further incubated at 37° C. for 10 minutes. Then, a reaction stop solution Developer II/2 mM nicotinamide was added at 50 μL/well, and the fluorescent probe generated from Developer II was measured (excited wave length 360 nm, fluorescent wave length 460 nm) by a fluorescent plate reader (Tecan Co., Infinite 200) within 60 minutes after the reaction stopped.

| sirtuin activity by comparison with the control value (SIRT1 enzyme [1]) | SIRT1 activity (SIRT1 enzyme [2]; concentrations of 100 μg/mL and 20 μg/mL) | SIRT1 activity (SIRT1 enzyme [2]; low concentrations of 10 μg/mL and 2 μg/mL) | Compound | sirtuin activation activity (sirtuin) |
| --- | --- | --- | --- | --- |
| – | – | – | O=C(/C=C/c1ccc(O)c(O)c1)c1ccc(O)cc1O [butein, 3,4,2′,4′-tetrahydroxychalcone] | weaker than resveratrol |
| – | – | – | O=c1c(O)c(-c2ccc(O)c(O)c2)oc2cc(O)ccc12 [fisetin, 3,7,3′,4′-tetrahydroxyflavone] | weaker than resveratrol |
| – | – | – | O=C(/C=C/c1ccc(O)cc1)c1ccc(O)cc1O [isoliquiritigenin, 4,2′,4′-trihydroxychalcone] | weaker than resveratrol |
| – | – | – | O=c1c(O)c(-c2ccc(O)c(O)c2)oc2cc(O)cc(O)c12 [quercetin, 3,5,7,3′,4′-pentahydroxyflavone] | weaker than resveratrol |
| enhanced | accelerated | almost no activity was observed | Oc1ccc(C=Cc2cc(O)cc(O)c2)cc1 [resveratrol] | effective in activating sirtuin |
